What all share (assay type): functional
The test system of one assay is Serratia sp. The experiment in a line: Antibacterial activity against Serratia sp. assessed as inhibition of bacterial growth. As to conditions: Serratia sp. (in: enterobacteria).
The subject of the next assay is Klebsiella sp. The experiment in a line: Antibacterial activity against Klebsiella sp. assessed as inhibition of bacterial growth.
Another assay concerns Enterobacter sp. Nature of the assay: Antibacterial activity against Enterobacter sp. assessed as inhibition of bacterial growth.
In another assay the test system is Escherichia coli. Nature of the assay: Antibacterial activity against Escherichia coli assessed as inhibition of bacterial growth.
Assay [1] relates to Stenotrophomonas maltophilia. The experiment in a line: Antibacterial activity against Stenotrophomonas maltophilia assessed as inhibition of bacterial growth.
Another assay deals with Proteus sp. Nature of the assay: Antibacterial activity against Proteus sp. assessed as inhibition of bacterial growth. As to conditions: Proteus sp. (in: enterobacteria).
A further assay concerns Acinetobacter baumannii. The experiment in a line: Antibacterial activity against carbapenem - resistant Acinetobacter baumannii.
A further assay relates to Yersinia enterocolitica. The experiment in a line: Antibacterial activity against Yersinia enterocolitica assessed as inhibition of bacterial growth in iron depleting media incubated for 20 hrs by CLSI protocol based assay.
The test system of the next assay is Streptococcus pneumoniae. Nature of the assay: Antibacterial activity against Streptococcus pneumoniae assessed as inhibition of bacterial growth.
A further assay deals with Enterobacteriaceae. The experiment in a line: Antibacterial activity against Enterobacteriaceae assessed as inhibition of bacterial growth.
Another assay has as its system Pseudomonas aeruginosa. The experiment in a line: Antibacterial activity against Pseudomonas aeruginosa assessed as inhibition of bacterial growth.

Values after ≈ are worked out from the molar mass of the structure shown. Numbered stars: 1 amine (or outer) side, 2 acyl side, 3 side chain; on linkers, the order of the positions; unused ones are H or OH. Square brackets hold non-standard residues; d marks the D form. Peptide text beside a SMILES is read from it. X1 = Cn1c(=O)n([C@@H]2S[C@H]([C@H](O)[C@@H](N[*:1])C(=O)[*:2])[C@@H](O)[C@H]2O)cc/c1=N\C(N)=O; Orn(N5-OH,N5-Ac) = CC(=O)N(O)CCC[C@H](N)C(=O)O

What is called MIC90 is the lowest concentration that inhibits either 90% of growth or 90% of the strains tested, depending on the study. On to `CC(C)(O/N=C(\C(=O)N[C@@H]1C(=O)N2C(C(=O)[O-])=C(C[N+]3(CCNC(=O)c4ccc(O)c(O)c4Cl)CCCC3)CS[C@H]12)c1csc(N)n1)C(=O)O` [CEFIDEROCOL], for which the MIC90 in the assay on Serratia sp., with Klebsiella sp., with Enterobacter sp. and with Escherichia coli was 0.25 µg/mL (≈ 0.332 µM) each time.

As to `CC(C)(O/N=C(\C(=O)N[C@@H]1C(=O)N(S(=O)(=O)O)C1CNC(=O)NCc1cc(=O)c(O)cn1O)c1csc(N)n1)C(=O)O` (some centres undefined), the MIC90 in assay [1] came to 0.25 µg/mL (≈ 0.395 µM); with Enterobacter sp., 8 µg/mL (≈ 12.6 µM); in the assay with Proteus sp., 0.12 µg/mL (≈ 0.19 µM).

By MIC is commonly meant the lowest concentration that inhibits growth of the organism. `C[C@@H]1S[C@@H]2[C@H](NC(=O)/C(=N/OC(C)(C)C(=O)O)c3csc(N)n3)C(=O)N2C(C(=O)[O-])=C1C[N+]12CCC(CNC(=O)c3ccc(O)c(O)c3Cl)(CC1)C2` gave an MIC against Acinetobacter baumannii of at most 0.03 µg/mL.

Take `CC(=O)N(O)CCC[C@H](NC(=O)[C@H](CCCN(O)C(C)=O)NC(=O)[C@@H](N)CCCN(O)C(C)=O)C(=O)N[C@@H](CCC(=O)NCCNC(=O)CC[C@@H](NC(=O)c1ccc(N(C)Cc2cnc3nc(N)nc(N)c3n2)cc1)C(=O)O)C(=O)O`: the MIC in the assay with Yersinia enterocolitica came to 0.0078 µg/mL (≈ 0.00683 µM); in the assay with Streptococcus pneumoniae it was 0.00196 µg/mL (≈ 0.00172 µM).

With `CC(=O)N(O)CCC[C@H](NC(=O)[C@H](CCCN(O)C(C)=O)NC(=O)[C@@H](N)CCCN(O)C(C)=O)C(=O)N[C@@H](CO)C(=O)N[C@@H](C(=O)O)[C@@H](O)[C@H]1S[C@@H](n2cc/c(=N\C(N)=O)n(C)c2=O)[C@H](O)[C@@H]1O` (H-[Orn(N5-OH,N5-Ac)][Orn(N5-OH,N5-Ac)][Orn(N5-OH,N5-Ac)]S[X1]-OH), the MIC with Streptococcus pneumoniae was determined as 0.01 µg/mL (≈ 0.0101 µM); in the assay on Escherichia coli, 0.005 µg/mL (≈ 0.00504 µM).

`C[C@H]1[C@H](NC(=O)/C(=N\OCc2cc(=O)c(O)cn2O)c2csc(N)n2)C(=O)N1OS(=O)(=O)O`: the MIC in the assay on Enterobacteriaceae is at most 1 µg/mL; in the assay with Pseudomonas aeruginosa, 2 µg/mL (≈ 3.96 µM).

Values taken from ChEMBL document CHEMBL5257160, “Siderophore conjugates to combat antibiotic-resistant bacteria” (2023).
